Reference: ChEMBL document CHEMBL3856240, “Structural determinants of diphenethylamines for interaction with the κ opioid receptor: Synthesis, pharmacology and molecular modeling studies” (Bioorg Med Chem Lett, 2016)

Legend:
[1] = biological target: T1, Kappa-type opioid receptor (Homo sapiens, UniProt P41145); conditions: CHO
Description: Antagonist activity at human kappa opioid receptor expressed in CHO cell membranes assessed as inhibition of U69,593 stimulated [35S]GTPgammaS binding after 60 mins

Mu-type opioid receptor = Mu-type opioid receptor (Homo sapiens, UniProt P35372); assay: Displacement of [3H]DAMGO from human mu opioid receptor expressed in CHO cell membranes after 60 mins by liquid scintillation counting
Sequence of Mu-type opioid receptor (P35372 whole entry): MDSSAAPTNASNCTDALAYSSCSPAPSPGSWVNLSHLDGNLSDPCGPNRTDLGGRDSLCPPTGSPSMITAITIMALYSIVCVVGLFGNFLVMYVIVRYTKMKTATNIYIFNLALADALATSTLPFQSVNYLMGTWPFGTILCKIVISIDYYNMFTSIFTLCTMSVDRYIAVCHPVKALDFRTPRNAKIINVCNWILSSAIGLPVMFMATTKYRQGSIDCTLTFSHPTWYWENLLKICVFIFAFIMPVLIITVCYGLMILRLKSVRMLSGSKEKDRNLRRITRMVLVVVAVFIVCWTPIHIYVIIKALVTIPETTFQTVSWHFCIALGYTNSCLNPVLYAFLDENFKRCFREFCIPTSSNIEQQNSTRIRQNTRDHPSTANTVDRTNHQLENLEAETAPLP

[2] = biological target: Delta-type opioid receptor (Homo sapiens, UniProt P41143); assay: Displacement of [3H]pCl-DPDPE from human delta opioid receptor expressed in CHO cell membranes after 60 mins by liquid scintillation counting
Sequence of Delta-type opioid receptor (P41143 whole entry): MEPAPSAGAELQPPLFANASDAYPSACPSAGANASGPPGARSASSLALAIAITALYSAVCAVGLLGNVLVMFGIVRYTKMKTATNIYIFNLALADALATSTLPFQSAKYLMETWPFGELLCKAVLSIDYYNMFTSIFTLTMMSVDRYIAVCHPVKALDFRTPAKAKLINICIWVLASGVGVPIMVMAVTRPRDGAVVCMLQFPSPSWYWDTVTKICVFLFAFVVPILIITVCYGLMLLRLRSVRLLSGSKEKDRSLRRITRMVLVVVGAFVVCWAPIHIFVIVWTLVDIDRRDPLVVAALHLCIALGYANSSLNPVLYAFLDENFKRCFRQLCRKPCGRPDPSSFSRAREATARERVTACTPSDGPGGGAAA

[3] = biological target: T1, Kappa-type opioid receptor; assay: Agonist activity at human kappa opioid receptor expressed in CHO cell membranes after 60 mins by [35S]GTPgammaS assay
[4] = biological target: T1, Kappa-type opioid receptor; assay: Displacement of [3H]U69,593 from human kappa opioid receptor expressed in CHO cell membranes after 60 mins by liquid scintillation counting
[5] = biological target: T1, Kappa-type opioid receptor; assay: Agonist activity at human kappa opioid receptor expressed in CHO cell membranes after 60 mins by [35S]GTPgammaS assay relative to U69,593; conditions: 1 h, read-out: %max

T1 sequence (P41145 whole entry): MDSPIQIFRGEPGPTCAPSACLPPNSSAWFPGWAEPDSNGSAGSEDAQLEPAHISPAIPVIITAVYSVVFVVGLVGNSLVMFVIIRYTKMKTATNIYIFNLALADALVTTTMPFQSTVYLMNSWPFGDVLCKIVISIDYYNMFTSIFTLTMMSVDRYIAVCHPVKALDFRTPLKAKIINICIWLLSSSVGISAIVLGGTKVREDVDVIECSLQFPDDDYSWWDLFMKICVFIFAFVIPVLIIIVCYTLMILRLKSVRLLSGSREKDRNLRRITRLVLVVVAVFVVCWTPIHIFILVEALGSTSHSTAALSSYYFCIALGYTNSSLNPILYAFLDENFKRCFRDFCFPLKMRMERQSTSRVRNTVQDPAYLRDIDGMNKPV

SMILES | Ke [1] [nM] | Ki (Mu-type opioid receptor) [nM] | Ki [2] [nM] | EC50 [3] [nM] | Ki [4] [nM] | Emax [5] [%]
Oc1ccc(CCN(CCc2ccccc2)CC2CC2)cc1 | 32.1 | 1750 | 2190 | > 10000 | 218 | 
Oc1cccc(CCN(CCc2ccccc2)CCc2ccccc2)c1 | 1310 | > 10000 | > 10000 | > 10000 | 211 | 
Oc1ccc(CCN(CCc2ccccc2)CC2CCC2)cc1 |  | 731 | 2130 | 109 | 36.3 | 43.8
